Source: patent US20130317096A1, “SYNERGISTIC INTERACTION OF AT LEAST ONE VITAMIN E COMPONENT AND TYROSINASE INHIBITORS FOR DERMATOLOGICAL APPLICATIONS” (Davos Life Science Pte Ltd, priority 2010, published 2013)
Entries after “also recorded” stand apart in the source; their conditions may differ.

What was measured:
B16 melanoma cells [1] = test: MTT cell viability assay; format: cell-based, mouse; details: 24 hrs of treatment, increasing dosages
Procedure: B16 mouse melanoma cells were purchased from (ATCC, Manassas, Va., USA).
The base medium for the cell line was Dulbecco's modified Eagle's medium (DMEM). To make the complete growth medium, fetal bovine serum (final concentration, 10%) was added to the base medium. Tocotrienol (T3) and tocopherol (TP) isomers and the palm tocotrienol-rich fraction (TRF) were purified from a palm fatty acid distillate (PFAD) using molecular distillation and Novasep® equipment (Novasep, Pompey, France). The extraction facility is located in Tuas, Singapore. The PFAD feed was purchased from Kuala Lumpur Kepong Berhad (Kuala Lumpur, Malaysia). The purity of the vitamin E isomers was verified by HPLC and gas chromatography (GC) percentage peak area.
For the cell viability study, 5×10^3 cells re-suspended in 100 μl of medium were plated into each well of a 96-well plate. The cells were then treated with different concentrations of the vitamin-E isomers for 24 hrs. After the treatment, 20 μl of MTT solution (1 mg/ml in PBS; Sigma-Aldrich, St. Louis, Mo., USA) was added to each well and the cells were incubated at 37° C. for 2 hrs. The formazan crystals were then re-suspended in 200 μl of DMSO and the intensity at 595 nm was measured.

[2] = system: cleaved caspase 3 and PARP; test: Western blot of apoptotic molecules; format: cell-based, mouse; details: B16 melanoma cells
tyrosinase mRNA = test: Reverse transcriptase PCR of tyrosinase mRNA; format: cell-based, mouse; details: B16 melanoma cells
From the text: Total RNA was isolated using Trizol reagent according to the manufacturer's protocol (Invitrogen, Carlsbad, Calif., USA). cDNA was synthesized using the SuperScript First Strand Synthesis System (Invitrogen, Carlsbad, Calif., USA) and was then amplified by PCR with tyrosinase-specific primers (forward primer, tyrosinase-S,5′-[…]-3′ [−2236/−2217] (SEQ ID NO: 1) and reverse primer, tyrosinase-AS,5′-[…]-3′ [+63/+42]) (SEQ ID NO: 2) and GAPDH specific primers: 5′ to 3′F […] (SEQ ID NO: 3); 5′ to 3′R […] (SEQ ID NO: 4). The PCR cycling protocol was as follows: 30 cycles for 10 min at 95° C., 30 sec at 95° C., 30 sec at 55° C., 1 min at 72° C., and 10 min at 72° C. Glyceraldehyde 3-phosphate dehydrogenase (GAPDH) was amplified as an internal control. The PCR products were electrophoresed on a 2% agarose gel and analyzed using a gel documentation system.

tyrosinase [3] = test: Western blot of tyrosinase protein expression in B16 melanoma cells; format: cell-based, mouse; details: for tyrosinase protein expression: 20 μM treatment; for tyrosinase protein suppression, dose response and relative potency: increasing dosage; for time response of tyrosinase suppression: single dose, 24 hrs versus 48 hrs
Procedure: Carcinogenesis, 2006, 27, 2180-9. Briefly, cell lysates were prepared by suspending cell pellets in lysis buffer (50 mmol/l Tris-HCl [pH 8.0], 150 mmol/l NaCl, 1% NP40, 0.5% deoxycholate, 0.1% SDS, […], 1 μg/ml leupeptin, and 1 mmol/l phenylmethylsulfonyl fluoride). The protein concentration was measured using the DC Protein Assay kit (Bio-Rad, Hercules, Calif., USA). An equal amount of protein (30 μg) was loaded onto a 10% SDS polyacrylamide gel for electrophoresis, then transferred onto a polyvinylidene difluoride membrane (Amersham, Piscataway, N.J., USA). The membrane was then incubated with primary antibodies for 1 hr at room temperature against tyrosinase, Id1, and beta-actin (Santa Cruz Biotechnology, Inc., Santa Cruz, Calif., USA). After incubation with appropriate secondary antibodies, signals were visualized by an ECL Western blotting system (Amersham). The expression of β-actin was assessed as an internal loading control for total cell lysate.

B16 melanoma cells [4] = test: Melanin content of treated B16 melanoma cells; format: cell-based, mouse; details: for melanin content lower than controls: 20 μM
Procedure: (§1) At different time points, cells were harvested using trysin-EDTA and the cell pellets were washed once with phosphate-buffered saline (PBS). A sample amount from each compound treatment group was divided into two equal parts. These cell pellets were then stored at −80° C. prior to the measurement of the tyrosinase activity and melanin content.
Harvested cell pellets were dissolved in 1 ml of 1N sodium hydroxide before incubation at 80° C. The melanin content was then immediately measured at 420 nm. The absorbance percentage values of the treated groups in comparison to untreated controls were calculated against per μg of the determined total protein content.

B16 melanoma cells [5] = test: Anti-pigmentation effect, photographs of cell pellets; format: cell-based, mouse; details: 20 μM
Procedure: as §1

[6] = system: B16 cells xenografted on the flank of nude mice; test: B16 xenograft model in nude mice; format: in vivo; details: cells pre-treated with 20 μM for 1 week, 14 days oral supplementation
Procedure: The experimental protocol was approved by the IACUC Committee of the A-STAR Biological Resource Centre (BRC) at Biopolis (IACUC no. 080302). Male BALB/c athymic nude mice (4-5 weeks old, 18-22 g) were purchased from The Jackson Laboratory (Bar Harbor, Me., USA). Mice were housed in Department 1 of the Biological Resource Centre (Biopolis, Singapore) under the standard condition (20.8±2° C., 55±1% relative humidity, 12 hrs light/dark cycle) with rodent diet (Harlan Laboratories, Inc., Indianapolis, Ind., USA) and chlorinated reverse osmosis water supplied in a pathogen-free environment. Briefly, B16 cells were pre-treated with 20 μM of γ- and δ-T3, or palm TRF for 1 week. Then, 5×10^5 pre-treated B16 cells in 100 μl serum-free DMEM were injected subcutaneously into the flank of nude mice using a 1-ml syringe with a 26-gauge needle (Becton Dickinson, Franklin Lakes, N.J., USA). This was followed by a 2-week oral supplementation of γ- and δ-T3, or palm TRF at the dose of 100 mg/kg/day. Altogether, there are four experimental groups: G1, vehicle control; G2, γT3 (100 mg/kg/d); G3, δT3 (100 mg/kg/d); and G4, full spectrum palm TRF (100 mg/kg/d). The mice were weighed daily and the tumors were measured using a Digital Carbon Fiber Caliper (Fisher Scientific, Pittsburgh, Pa., USA) at the 5th and 14th day after innoculation. After 14 days of treatment, the mice were euthanized by CO2 inhalation. Blood samples were collected through cardiac bleeding using a 26-gauge needle. Blood samples were incubated at room temperature for 30 min, followed by centrifugation at 4400 rpm for 30 min at 4° C. Serum, as the supernatant, was separated from plasma and stored at −80° C. Tumors, liver, kidney, spleen, lung, heart, and skin were harvested.

tyrosinase [7] = test: UV-induced tyrosinase protein expression, Western blot; format: cell-based, mouse
Procedure: (§2) The UVB source for cell irradiation was provided using a UVP UVM-57 handheld UV lamp (UVP Inc, Upland, Calif., USA).
Briefly, cell lysates were prepared by suspending cell pellets in lysis buffer (50 mmol/l Tris-HCl [pH 8.0], 150 mmol/l NaCl, 1% NP40, 0.5% deoxycholate, 0.1% SDS, 1 mg/ml aprotinin, 1 μg/ml leupeptin, and 1 mmol/l phenylmethylsulfonyl fluoride). The protein concentration was measured using the DC Protein Assay kit (Bio-Rad, Hercules, Calif., USA). An equal amount of protein (30 μg) was loaded onto a 10% SDS polyacrylamide gel for electrophoresis, then transferred onto a polyvinylidene difluoride membrane (Amersham, Piscataway, N.J., USA). The membrane was then incubated with primary antibodies for 1 hr at room temperature against tyrosinase, Id1, and beta-actin (Santa Cruz Biotechnology, Inc., Santa Cruz, Calif., USA). After incubation with appropriate secondary antibodies, signals were visualized by an ECL Western blotting system (Amersham). The expression of β-actin was assessed as an internal loading control for total cell lysate.

B16 cells = test: Melanin content of pre-treated B16 cells after UV exposure; format: cell-based, mouse; details: 10 minutes UV exposure (short and long wave UV)
From the text: as §2

**Q.** For CC(C)=CCC/C(C)=C/CC/C(C)=C/CC[C@]1(C)CCc2cc(O)cc(C)c2O1 [δ-tocotrienol, 8-methyltocotrienol], which “B16 melanoma cell viability / proliferation rate” value (B16 melanoma cells [1]) is on record?
**A.** The value was “inhibited the proliferation rate of B16 melanoma cells in a dose-dependent fashion; also recorded: inhibit B16 melanoma cell viability at high concentrations”.

**Q.** And the “induction of apoptotic molecules (cleaved caspase 3 and PARP)” value [2]?
**A.** Its value is “induced critical apoptotic molecules in a dose-dependent manner”.

**Q.** And the “induction of apoptotic molecules (cleaved caspase 3 and PARP)” value ([2]; listed as δ-T3)?
**A.** The value was “induced cellular apoptosis”.

**Q.** What about the “tyrosinase mRNA” value (tyrosinase mRNA) of the same compound?
**A.** The value was “No change of tyrosinase mRNA”.

**Q.** And the “tyrosinase mRNA” value (tyrosinase mRNA; listed as δ-T3)?
**A.** The value was “not affected”.

**Q.** What about the tyrosinase protein expression (tyrosinase [3]; listed as δ-T3) of the same compound?
**A.** The tyrosinase protein expression was “remarkable suppression of tyrosinase protein expression”.

**Q.** And the tyrosinase protein expression (tyrosinase [3]; listed as δT3)?
**A.** Its tyrosinase protein expression is “suppresses tyrosinase protein expression”.

**Q.** What about the “tyrosinase protein suppression, dose response and relative potency” value (tyrosinase [3]; listed as δ-T3) of the same compound?
**A.** Its value is “significant suppression of tyrosinase in a dose-dependent manner”.

**Q.** What about the “tyrosinase protein suppression, dose response and relative potency” value (tyrosinase [3]; listed as δT3) of the same compound?
**A.** The value was “most potent inhibitor of tyrosinase protein”.

**Q.** And the “time response of tyrosinase suppression” value (tyrosinase [3]; listed as δ-T3)?
**A.** The value was “enhanced by increasing the treatment period from 24 to 48 hrs”.

**Q.** What about the “time response of tyrosinase suppression” value (tyrosinase [3]; listed as δT3) of the same compound?
**A.** The value was “enhanced after a 48 hr incubation period”.

**Q.** What about the “melanin content lower than controls” value (B16 melanoma cells [4]; day 5) of the same compound?
**A.** The value was 45%.

**Q.** What about the “melanin content lower than controls” value (B16 melanoma cells [4]; day 9) of the same compound?
**A.** Its value is 30%.

**Q.** And the constitutive melanin synthesis (B16 melanoma cells [4]; B16 melanoma cells)?
**A.** Its constitutive melanin synthesis is “suppress constitutive melanin synthesis”.

**Q.** And the cell pellet pigmentation (B16 melanoma cells [5]; listed as delta-T3)?
**A.** Its cell pellet pigmentation is “lighter cell pigmentation”.

**Q.** What about the cell pellet pigmentation (B16 melanoma cells [5]; listed as δT3) of the same compound?
**A.** Its cell pellet pigmentation is “lighter cell pigmentation”.

**Q.** What about the “pigmentation of solid tumors” value [6] of the same compound?
**A.** Its value is “lighter in colour compared to controls”.

**Q.** And the tumor size [6]?
**A.** The tumor size was “significantly smaller”.

**Q.** What about the “suppression of short-term UVB-induced tyrosinase activation” value (tyrosinase [7]; <10 min UVB) of the same compound?
**A.** The value was “more potent than γT3”.

**Q.** What about the “tyrosinase protein expression of B16 cells exposed to UV” value (tyrosinase [7]; UV 1, 10, 30 and 60 minutes) of the same compound?
**A.** Its value is “significantly suppressed the tyrosinase protein expression”.

**Q.** What about the “long-term inhibitory effect on UVB-induced tyrosinase activation” value (tyrosinase [7]; long-term UVB) of the same compound?
**A.** The value was “comparable”.

**Q.** And the “melanin content after UV exposure” value (B16 cells)?
**A.** The value was “significantly suppressed the melanin content”.
